Tests used:
[1] = Pharmacokinetic evaluation in rat plasma after oral administration; assay type: in vivo; details: SD male rats, 30 mg/kg
Description: The test compound was mixed with 0.5% CMC-Na+0.2% (V:V) Tween80 aqueous solution, vortexed, and sonicated to prepare a 3 mg/mL homogeneous suspension. SD male rats were selected, and orally administered with the candidate compound solution at a dose of 30 mg/kg. Whole blood was collected for a certain period of time and prepared into plasma. The drug concentration was analyzed by the LC-MS/MS method, and the pharmacokinetic parameters were calculated using Phoenix WinNonlin software (Pharsight, USA).
Cmax: highest plasma drug concentration after administration; Tmax: time required to reach the peak concentration after administration; T1/2: time required for the plasma drug concentration to decrease by half; Tlast: time at the last detection point; AUC0-last: area under the drug-time curve, which refers to the area enclosed by the plasma drug concentration curve and the time axis.

Human DNA-PK = target: T1, Human DNA-PK (Homo sapiens, UniProt P78527); experiment: DNA-dependent protein kinase (DNA-PK) inhibitory activity screening assay (Eurofins, HTRF); assay type: biochemical; details: ATP: 10 μM, 50 nM GST-cMyc-p53
T1 construct: purchased Eurofins (Eurofins Pharma Discovery Service; outsourced assay)
Description: This experiment was tested in the Eurofins
Human DNA-PK; Mg/ATP; GST-cMyc-p53; EDTA; Ser15 antibody; ATP: 10 μM.
DNA-PK(h) was incubated in assay buffer containing 50 nM GST-cMyc-p53 and Mg/ATP (according to the required concentration). The reaction was initiated by adding the Mg/ATP mixture. After incubation at room temperature for 30 minutes, the reaction was stopped by adding a stop solution containing EDTA. Finally, detection buffer (containing labeled anti-GST monoclonal antibody and europium-labeled anti-phospho Ser15 antibody against phosphorylated p53) was added. The plate was then read in time-resolved fluorescence mode, and the homogeneous time-resolved fluorescence (HTRF) signal was determined according to the formula HTRF=10000×(Em665 nm/Em620 nm).

[2] = test system: human lung cancer NCI-H1703 xenograft tumor; experiment: In vivo pharmacodynamic study, NCI-H1703 subcutaneous xenograft tumor model; parameters: species or system female BALB/c nude mice; details: for Tumor volume (Day 0): Day 0, Mean ± SEM; for Tumor volume (Day 0) / Tumor volume (Day 21) / Tumor weight (Day 21): n = 9; for RTV (Day 21) / T/C (%) (Day 21) / T/Cweight (%) / TGI (%) (Day 21): Day 21; for Tumor volume (Day 21) / Tumor weight (Day 21): Day 21, Mean ± SEM
Description: Experimental purpose: To study the in vivo pharmacodynamics of the test compound in the BALB/c nude mouse model with subcutaneous xenograft tumor of human […] NCI-H1703 cells.
Experimental animals: Experimental animals: female BALB/c nude mice, 6 to 8 weeks of age, weighing 18 to 22 grams; supplier: Shanghai Sippr-BK Lab.Animal Co.Ltd.
Human non-small cell lung cancer NCI-H1703 cells were cultured in vitro in RPMI1640 medium with 10% fetal bovine serum, 100 U/mL penicillin, and 100 μg/mL streptomycin, and cultured at 37° C. in a 5% CO2 incubator. Conventional digestion with trypsin-EDTA was performed twice a week for passaging. When the cell saturation was 80% to 90% and the number of cells reached the requirement, and the cells were collected, counted, and seeded.
0.2 mL (5×10^6) NCI-H1703 cells (added with Matrigel, volume ratio of 1:1) were subcutaneously inoculated on the right back of each mouse, and the administration in groups began when the average tumor volume reached about 130 mm^3.
The compound of formula (I) was prepared into 3 mg/mL, 6 mg/mL, and 9 mg/mL suspension solutions with 98.5% water+0.5% HPMC+1% Tween 80.
Tumor diameters were measured with a vernier caliper twice a week. The formula for calculating tumor volume is: V=0.5a×b^2, wherein a and b represent the long and short diameters of the tumor, respectively. The relative tumor volume (RTV) was calculated based on the results of tumor measurement. The calculation formula is RTV=Vt/V0, wherein V0 is the tumor volume measured at the time of group administration (i.e., day 0), and Vt is the tumor volume at one measurement. Data of the same day was taken for TRTV and CRTV.
The tumor inhibitory effect of the compound was evaluated by TGI (%, reflecting the tumor growth inhibition rate) or relative tumor proliferation rate T/C (%):
T/C (%)=TRTV/CRTV×100%, TRTV represents the average RTV of the treatment group, and CRTV represents the average RTV of the negative control group.
TGI (%)=[1−(average tumor volume at the end of administration in a certain treatment group−average tumor volume at the beginning of administration in this treatment group)/(average tumor volume at the end of treatment in the vehicle control group−average tumor volume at the beginning of treatment in the vehicle control group)]×100%.
After the experiment, the tumor weight (TW) was detected and T/Cweight (%) was calculated. The calculation formula is: T/Cweight (%)=TWtreatment/TWvehicle×100%. TWtreatment and TWvehicle represent the tumor weights of the administration group and vehicle control group, respectively.
Statistical analysis was performed using SPSS software based on RTV data at the end of the experiment. […] T-test was used to analyze the comparison between two groups, and one-way ANOVA was used to analyze the comparisons between three or more groups. If the variance was homogeneous (F value had no significant difference), Tukey's method is used for analysis; if the variance was not homogeneous (F value had significant difference), and the Games-Howell method was used for testing. p<0.05 was considered a significant difference.

[3] = Solid-state stability test of crystal form B (XRPD and HPLC purity); assay type: physicochemical
Description: Based on the “Guideline for Stability Testing of Pharmaceutical Ingredients and Formulations” (Chinese Pharmacopoeia 2020 Edition, General Rule 9001), in order to evaluate the solid-state stability of the crystal form B of the compound of formula (II-1), the solid-state stability of the crystal form B was investigated in terms of the influencing factors (high temperature, high humidity, and light) and the conditions of 60° C./75% RH and 40° C./75% RH. The crystal form B was placed at high temperature (60° C., open) and high humidity (25° C./92.5° RH, open) for 10 days respectively, and then placed open under visible and UV light (samples of the shaded control group were placed at the same time and wrapped in tin foil) according to the ICH conditions (total illuminance up to 1,200,000 Lux hrs in visible and 200 W hrs/m^2 in UV), for 1, 2, and 3 months at 60° C./75% RH (open), and for 1, 2, and 3 months at 40° C./75% RH (open).
About 10 mg of this crystal form was accurately weighed and placed in a dry and clean glass vial, spread into a thin layer, and left open under the test conditions of the influence factors and the accelerated conditions. Samples placed under light conditions (visible light 1200000 Lux hrs, UV 200 W hrs/m^2) were in a clear glass vial with full exposure, and samples for XRPD test were placed separately.
After the sample was taken out at the time point, it was covered, sealed with a sealing film, and stored in a −20° C. refrigerator. When preparing the sample, the sample was taken out of the refrigerator and warmed to room temperature, and dissolved with 25 mL of diluent (acetonitrile/water, 1:1, v/v) to obtain a solution with a concentration of approximately 0.5 mg/mL. The solution was analyzed using the liquid chromatography, and the results of the test were compared with the initial test results on day 0.
Preparation of standard solution on day 0: About 12.5 mg of this crystal form was weighed and placed in a 25 mL volumetric flask, dissolved with […], and diluted to the mark.
At the same time, HPLC tests were performed on all stability samples.

[4] = Hygroscopicity study by dynamic vapor sorption (DVS); assay type: physicochemical; details: 25° C. and 80% RH
Description: Instrument model: SMS DVS intrinsic dynamic moisture sorption analyzer
Test conditions: a sample (about 10 mg) is taken and placed in the DVS sample tray for testing.
The detailed DVS parameters are as follows:
Equilibrium: dm/dt=0.01%/min
RH (%) test increment: 5% RH
RH (%) test increment range: 0% to 95% to 0%
The evaluation and classifications of hygroscopicity are shown as follows:
Sufficient moisture is absorbed to produce a fluid: Deliquescence; ΔW %≥15%: High hygroscopicity; 15%>ΔW %≥2%: Hygroscopicity; 2%>ΔW %≥0.2%: Slight hygroscopicity; ΔW %<0.2%: No hygroscopicity or almost no hygroscopicity: ΔW % indicates hygroscopic weight gain of the sample at 25±1° C. and 80±2% RH.
The crystal form B of the compound of formula (II-1) (about 10 mg) was taken and placed in the DVS sample tray for testing.

SMILES: Cc1cc2ncnn2cc1Nc1ncc2c(n1)n(N1CC3CCC(C1)O3)c(=O)n2C [Crystal form A of the compound of formula (I)]
- AUC0-last [1]: 83.483 µM·h
- Cmax [1]: 14.6 µM
- T1/2 [1]: 1.59 h
- Tmax [1]: 0.67 h

SMILES: Cc1cc2ncnn2cc1Nc1ncc2c(n1)n(N1CC3CCC(C1)O3)c(=O)n2C
- IC50 (Human DNA-PK): 0.6 nM
- AUC(0-t) ([1]; male, SD, rat, po): 87.4 µM·h
- Cmax ([1]; male, SD, rat, po): 11.1 µM

SMILES: Cc1cc2ncnn2cc1Nc1ncc2c(n1)n(N1CC3CCC(C1)O3)c(=O)n2C [Crystal form K of the compound of formula (VIII-1)]
- AUC0-last [1]: 127.313 µM·h
- Cmax [1]: 21.7 µM
- T1/2 [1]: 2.42 h
- Tlast [1]: 32.0 h
- Tmax [1]: 1.50 h

SMILES: Cc1cc2ncnn2cc1Nc1ncc2c(n1)n(N1CC3CCC(C1)O3)c(=O)n2C [Compound of formula (I)]
- Tumor volume (Day 0) ([2]; 30 mg/kg): 131 ± 10 mm^3
- RTV (Day 21) ([2]; 30 mg/kg): 7.57 ± 0.53
- T/C (%) (Day 21) ([2]; 30 mg/kg): 79.3%
- T/Cweight (%) ([2]; 30 mg/kg): 79.6%
- TGI (%) (Day 21) ([2]; 30 mg/kg): 20.6%
- Tumor volume (Day 21) ([2]; 30 mg/kg): 979 ± 86 mm^3
- Tumor weight (Day 21) ([2]; 30 mg/kg): 1.031 ± 0.095 g
- Tumor volume (Day 0) ([2]; 60 mg/kg): 131 ± 10 mm^3
- RTV (Day 21) ([2]; 60 mg/kg): 3.31 ± 0.51
- T/C (%) (Day 21) ([2]; 60 mg/kg): 34.7%
- T/Cweight (%) ([2]; 60 mg/kg): 36.0%
- TGI (%) (Day 21) ([2]; 60 mg/kg): 72.3%
- Tumor volume (Day 21) ([2]; 60 mg/kg): 427 ± 64 mm^3
- Tumor weight (Day 21) ([2]; 60 mg/kg): 0.467 ± 0.078 g
- Tumor volume (Day 0) ([2]; 90 mg/kg): 130 ± 10 mm^3
- RTV (Day 21) ([2]; 90 mg/kg): 2.64 ± 0.45
- T/C (%) (Day 21) ([2]; 90 mg/kg): 27.7%
- T/Cweight (%) ([2]; 90 mg/kg): 29.2%
- TGI (%) (Day 21) ([2]; 90 mg/kg): 79.4%
- Tumor volume (Day 21) ([2]; 90 mg/kg): 351 ± 64 mm^3
- Tumor weight (Day 21) ([2]; 90 mg/kg): 0.379 ± 0.069 g

SMILES: Cc1cc2ncnn2cc1Nc1ncc2c(n1)n(N1CC3CCC(C1)O3)c(=O)n2C [Crystal form B of the compound of formula (II-1)]
- Purity (area %) ([3]; 0 days (initial)): 99.70 area %
- Purity (area %) ([3]; 40° C., relative humidity of 75%, open, one month): 99.77 area %
- Purity (area %) ([3]; 40° C., relative humidity of 75%, open, three months): 99.72 area %
- Purity (area %) ([3]; 40° C., relative humidity of 75%, open, two months): 99.76 area %
- Purity (area %) ([3]; 60° C., relative humidity of 75%, open, one month): 99.76 area %
- Purity (area %) ([3]; 60° C., relative humidity of 75%, open, three months): 99.73 area %
- Purity (area %) ([3]; 60° C., relative humidity of 75%, open, two months): 99.73 area %
- Purity (area %) ([3]; High humidity (25° C., relative humidity of 92.5%, open), 10 days): 99.75 area %
- Purity (area %) ([3]; High temperature (60° C., open), 10 days): 99.71 area %
- Purity (area %) ([3]; Shaded control group, wrapped with tin foil, placed with visible light + UV): 99.75 area %
- Purity (area %) ([3]; Visible light + UV (ICH conditions), 1,200,000 Lux·hrs, 200 W·hrs/m^2): 99.77 area %
- Hygroscopicity classification [4]: slightly hygroscopic
- T1/2 [1]: 4.07 h
- Tmax [1]: 1.33 h

Source: patent US20240254145A1, “SALT FORM AND CRYSTAL FORM OF HETEROCYCLIC SUBSTITUTED PURINONE DERIVATIVE” (ZAI LAB (SHANGHAI) CO., LTD., priority 2021, published 2024)
